Earlier results in patent US10611908B2, “Micelles for mucoadhesive drug delivery” (McMaster University, priority 2015, dated 2020).

Compound	pKa
C=C(C)C(=O)O [MAA, methacrylic acid]	~4.6
OB(O)c1ccccc1 [PBA, Phenylboronic acid]	~8.8
